According to patent US12144869B2, “Anti-ROR1 antibody conjugates, compositions comprising anti ROR1 antibody conjugates, and methods of making and using anti-ROR1 antibody conjugates” (Sutro Biopharma, Inc., priority 2022, dated 2024):
Blank lines part the entries; values can stand above or below the molecule they belong to.

What was measured:
[1] = tested on: ROR1-positive Ntera-2 cells co-cultured with PMBCS; experiment: Ntera-2/PBMC co-culture: target cell killing and monocyte activation; assay type: cell-based
Procedure: ROR1-positive Ntera-2 cells were co-cultured with PMBCS at E:T=[…] and treated with Conjugate 46 or exatecan for 3 days. Live target cell count and monocyte activation were measured by FACS. […] FIG. 21A and FIG. 21B are graphs showing the percent of live target cells and monocyte activation in Ntera-2 cells following treatment with Conjugate 46 or exatecan compared to the un-conjugated antibody and an isotype control of Conjugate 46. […] Unconjugated anti-ROR1 antibody or a non-targeted ADC had no activity. […] Viability and calreticulin surface expression were measured and presented as a percentage compared to untreated cells.

[2] = tested on: ROR1-positive Ntera-2 cells; experiment: Induction of immunogenic cell death markers (calreticulin FACS, HMGB1 ELISA); assay type: cell-based; conditions: 3 days treatment
Procedure: ROR1-positive Ntera-2 cells were treated with Conjugate 46 or exatecan for 3 days. Calreticulin on the cell surface was measured by FACS and HMGB1 in the cell culture medium were measured by ELISA. […] FIG. 20A and FIG. 20B illustrate calreticulin expression and HMGB1 release of Ntera-2 cells in the presence of Conjugate 46 or exatecan compared to the un-conjugated antibody and an isotype control of Conjugate 46.

[3] = tested on: ROR1 positive Ntera-2 cell; experiment: In vitro cell killing of ROR1 ADCs on Ntera-2; assay type: cell-based
Procedure: (§1) Anti-ROR1 antibody was conjugated to different linker-warheads described herein at different DARs and the cell killing activity of the ADCs were evaluated on ROR1 positive Ntera-2 cell and ROR1 negative MCF7 cells.
(§2) Ntera-2 or MCF7 cell at 625 cells/25 μL were seeded in a 384-well flat bottom white polystyrene plate one day before the assay start. ADCs were formulated at 2× starting concentration. Filter sterilized samples were serial diluted (1:3) under sterile conditions and added onto cells in triplicates. Plates were cultured at 37° C. in a CO2 incubator for 120 hours. For cell viability measurement, 30 microliter of Cell Titer-Glo® reagent (Promega Corp, Madison, WI) was added into each well, and plates processed as per product instructions. Relative luminescence was measured on an ENVISION® plate reader (Perkin-Elmer; Waltham, MA). Relative luminescence readings were converted to % viability using untreated cells as controls. Data was fitted with non-linear regression analysis, using log (inhibitor) vs. response, variable slope, 4-parameter fit equation using GraphPad Prism.
To evaluate if the cell killing activity of anti-ROR1 ADCs is dependent on antibody binding to ROR1 expressed on cell surface, the same linker-warheads (LP3, LP4) were conjugated to an anti-GFP antibody and the cell killing of the anti-ROR1 and anti-GFP ADCs were evaluated in cell killing assays on ROR1 positive Ntera-2 cell and ROR1 negative MCF7 cells. […]

ROR1 negative MCF7 cells = experiment: In vitro cell killing of ROR1 ADCs on MCF7; assay type: cell-based
Procedure: as §1, §2
To evaluate if the cell killing activity of anti-ROR1 ADCs is dependent on antibody binding to ROR1 expressed on cell surface, the same linker-warheads (LP3, LP4) were conjugated to an anti-GFP antibody and the cell killing of the anti-ROR1 and anti-GFP ADCs were evaluated in cell killing assays on ROR1 positive Ntera-2 cell and ROR1 negative MCF7 cells.

TNBC PDX tumors = experiment: TNBC PDX models, single agent or combination with olaparib; assay type: in vivo, athymic nude mice; conditions: CTG-0437, CTG-1017, and CTG-2055; single agent olaparib 50 mg/kg p.o. qd×28
Text: The activity of Conjugate 46 as a single agent or in combination with the PARP inhibitor olaparib was additionally assessed in TNBC PDX models. Briefly, PDX tumors, spanning varying levels of ROR1 expression and sensitivity to olaparib, were passaged in athymic nude Fox1^nu mice before being processed into tumor fragments for subcutaneous implantation into the hind flank of mice for study initiation. When tumors reached a volume of around 150-300 mm^3, the mice were randomized and enrolled into the study. Tumor-bearing mice were administered up to three weekly doses (qw×3) of Conjugate 46 i.v. at 5 mg/kg and up to twenty-eight daily doses (qd×28) of olaparib p.o. at 50 mg/kg.
Combination treatment with Conjugate 46 and olaparib (50 mg/kg, qd×28) is conducted using a 2 mg/kg, qw×3 dosing regimen for Conjugate 46. The combination therapy is assessed in six TNBC PDX models as described in Example 26.

[4] = tested on: Immunoglobulin (Ig), Frizzled (Fz), and Kringle (Kr) domains of ROR1; experiment: Epitope binning ELISA on ROR1 domains; assay type: binding; conditions: Table 6
Text: Antibody binding was detected via HRP-conjugated anti-human Fc antibodies (Jackson Immunoresearch) and detection with SuperSignal ELISA Pico Chemiluminescent Substrate (Pierce).

[5] = biological target: T1, HCT116 cells overexpressing human ROR1 (HCT116-hRor1) (Homo sapiens, UniProt Q01973); experiment: FACS cell binding on HCT116-hROR1; conditions: Table 11, SP34 light chain
T1 construct: expressed in transfected cells; host or cells: HCT116 (clone HCT116-hRor1-D02)
Text: Ntera-2, MDA-MB-231, MCF7, HCT116 and Mino cells were obtained from ATCC. HCT116-hRor1-D02 clone was generated by transfecting HCT116 cells with a plasmid containing human Ror1 cDNA sequence and selected for highest stable expression of hRor1 on the cell surface. MDA-MB-231, MCF7, HCT116 and HCT116-Ror1 cell were maintained in Ham's F-12 high glucose DMEM (50-50) (Cellgro-Mediatech; Manassas, VA) supplemented with 10% heat-inactivated fetal bovine serum (Hyclone; Thermo Scientific; Waltham, MA), 1% Penicillin/Streptomycin (Cellgro-Mediatech; Manassas, VA) and 2 mmol/L-glutamax (Life Technology; Carlsbad, CA). Mino cells were maintained in RPMI-1640 medium (Cellgro-Mediatech; Manassas, VA) supplemented with 20% heat-inactivated fetal bovine serum (Hyclone; Thermo Scientific; Waltham, MA), 1% Penicillin/Streptomycin (Cellgro-Mediatech; Manassas, VA) and 2 mmol/L-glutamax (Life Technology; Carlsbad, CA).
Variants with expression levels>250 nM were tested in a fluorescence-activated cell sorting (FACS) cell-binding assay. […]
A mix of ROR1 positive and negative cells was prepared as follows. […] Cells were then washed 2× with FACS buffer and fixed for 10 minutes in 200 μl PBS with 2% PFA prior to fluorescence detection. […] Mean Fluorescence Intensity of ROR1 antibody binding was analyzed using FlowJo® software (Tree Star, Inc.).

[6] = Differential scanning fluorimetry (protein thermal shift; TM1/TM2); assay type: physicochemical; conditions: Table 11; melting temperature of the Fab domain
Procedure, shortened: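 Protein at 0.2-2 mg/mL was mixed 1:1 with SYPRO Orange in PBS and heated to 95° C. at ~1.5° C. per minute while fluorescence was monitored, in quadruplicate. TM1 is Fc (CH2) unfolding and TM2 is Fab unfolding.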

human ROR1-Fz = biological target: T2, human ROR1-Fz (Homo sapiens, UniProt Q01973); experiment: Biacore off-rate and kinetic analysis, ROR1-Fz; assay type: binding; conditions: Table 11; SP34 light chain
T2 construct: Frizzled (Fz, residues 165-305); His6 (C); purchased Acro Biosystems; host or cells: HEK293
Procedure, shortened: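 Anti-ROR1 antibodies captured on anti-human Fc surface; recombinant hROR1 ECD or ROR1-Fz analyte flowed at 100, 50, 25, 6.25, 1.5625 nM plus 0 nM, 180 s association, 600 s dissociation, 25° C., HBS-EP+ buffer. KD from ratio of rate constants, 1:1 Langmuir fit.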

Molecule: CC[C@@]1(O)C(=O)OCc2c1cc1n(c2=O)Cc2c-1nc1cc(F)c(C)c3c1c2[C@@H](N)CC3 [exatecan]
cell killing of target cells (live target cell count, FACS) ([1]; E:T=10.1, 3 days): induced potent cell killing of target cells | monocyte activation (CD86 expression) ([1]; E:T=10.1, 3 days): potently induced monocyte activation | calreticulin on the cell surface ([1]; concomitant with reduced viability): could be detected on the cell surface | HMGB1 release into the cell culture medium (ELISA) [2]: induced | calreticulin translocation to the cell surface (FACS) [2]: induced | EC50 ([3]; NTERA2, 120 h, read-out: NTERA-2 EC50): 0.074 nM | NTERA-2 Span ([3]; Table 13, ROR1 positive Ntera-2, 120 hours): 98% | EC50 (ROR1 negative MCF7 cells; Homo sapiens, MCF7, 120 h, read-out: MCF-7 EC50): 0.466 nM | MCF-7 Span (ROR1 negative MCF7 cells; Table 13, ROR1 negative MCF7, 120 hours): 91%

Molecule: O=C(c1cc(Cc2n[nH]c(=O)c3ccccc23)ccc1F)N1CCN(C(=O)C2CC2)CC1 [olaparib]
tumor growth suppression (TNBC PDX tumors): moderate tumor growth suppression

Further lines, with some results ahead:

Domain binding by ELISA [4]: Fz
B1: SRP2196 (antibody, V domains shown)
VH: EVQLVESGGGLVQPGGSLRLSCAASGFNITGYYIHWVRQAPGKGLEWVGYISPNSGSTYYADSVKGRFTISADTSKNTAYLQMNSLRAEDTAVYYCARDSRRYVRPFDYWGQGTLVTVSS
VL: QAVVTQESALTTSPGETVTLTCRSSTGAVTTSNYANWVQEKPDHLFTGLIGGTNKRAPGVPARFSGSLIGDKAALTITGAQTEDEAIYFCALWYSNLWVFGGGTKLTVL
modifications: Synthetic: 1944-A07; VH; Synthetic: SP34 ; VL

HCT 116-hROR1 Binding Bmax (MFI) [5]: 15139 MFI | Kd ([5]; read-out: HCT 116-hROR1 Binding Kd): 0.3 nM | Biacore human ROR1-Fz ka (human ROR1-Fz): 185000 M⁻¹ s⁻¹ | Biacore human ROR1-Fz kd (human ROR1-Fz): 0.000269 s⁻¹ | Kd (human ROR1-Fz): 1.45 nM
B2: SRP2196-B07 (antibody, V domains shown)
VH: EVQLVESGGGLVQPGGSLRLSCAASGFNITGYHIHWVRQAPGEGLEWVGYISPNSGATYYADSVEGRFTISADTSKNTAYLQMHSLRAEDTAVYYCTRDSRRYVRGWDYWGQGTLVTVSS
VL: QAVVTQESALTTSPGETVTLTCRSSTGAVTTSNYANWVQEKPDHLFTGLIGGTNKRAPGVPARFSGSLIGDKAALTITGAQTEDEAIYFCALWYSNLWVFGGGTKLTVL
TM2 (° C.) [6]: 69 °C
